Patent US8476290B2, “Compound having spiro-bonded cyclic group and use thereof” (Ono Pharmaceutical Co., Ltd., priority 2009, dated 2013)
pIC50: −log10 of the molar value.

Legend:
[1] = Blood kinetic test and time (T90) to maintain the IC90 value; format: in vivo, Crl:CD(SD) Rat; settings: time the plasma concentration stays at the PBMC IC90 value or more; rat, intravenous 1 mg/kg
Protocol: A test compound was weighed, dissolved in WellSolve (trade name; manufactured by Celeste Corporation)/water/physiological saline=1/9/10 which was heated at 60° C. and adjusted to 20 mg/mL. Thereafter, the test compound was diluted by 10 times with distilled water for injection, and further diluted by 2 times with physiological saline. Then, intravenous administration was performed by rapid single administration of an intravenously administered solution (1 mg/kg) from the tail vein of Crl:CD(SD) Rat (male, manufactured by CHARLES RIVER LABORATORIES JAPAN, INC). The administration is conducted under fasting conditions; water is freely ingested. A 0.35 mL blood sample is taken from cervical vein by using Heparinized Syringe at 5 minutes, 15 minutes, 30 minutes, 1 hour, 2 hours, 4 hours, 6 hours, 8 hours, and 24 hours after administration. The obtained blood is stored in ice, and after centrifugation at 12,000 rpm for 5 minutes, blood plasma is fractionated. An internal standard solution (100 μL) and acetonitrile (2 mL) was added to 100 μL of plasma, followed by stirring and further centrifugation at 2,500 rpm for 10 minutes. The supernatant was desiccated by a centrifugal thickener and then 150 μL of an aqueous 67% dimethyl sulfoxide solution was added to the residue thereby dissolving again the residue, and 20 μL of the resultant solution was analyzed by LC/MS/MS.
Analysis by LC/MS/MS was carried out under the following conditions.
A curve of the compound concentration in plasma versus the time of each compound was adapted to a 1 or 2 compartment model using pharmacokinetic analysis software WinNonlin (trade name) (ver4.0.1, Pharsight Corporation).

CXCR4 = target: T1, CXCR4 (Homo sapiens, UniProt P61073); test: Inhibition of binding human SDF-1 to CEM cells; settings: 125I-SDF-1, CEM cells, 4° C., 60 minutes; read-out: concentration showing 50% of an inhibition ratio
T1 construct: a human T cell strain in which CXCR4 is known to be expressed; endogenous in cells; host or cells: CEM cells (human T cell strain)
T1 sequence (P61073 whole entry): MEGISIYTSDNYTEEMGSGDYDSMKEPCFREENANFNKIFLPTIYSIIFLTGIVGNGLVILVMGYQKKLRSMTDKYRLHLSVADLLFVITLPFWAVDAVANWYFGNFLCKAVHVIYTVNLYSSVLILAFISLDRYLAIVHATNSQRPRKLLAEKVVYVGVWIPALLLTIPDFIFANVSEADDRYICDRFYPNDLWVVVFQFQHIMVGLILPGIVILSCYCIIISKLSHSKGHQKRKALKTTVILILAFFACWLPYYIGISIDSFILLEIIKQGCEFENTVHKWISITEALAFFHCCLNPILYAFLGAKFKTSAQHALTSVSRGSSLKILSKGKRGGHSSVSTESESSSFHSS
Protocol: Specifically, as a system of screening a compound that inhibits the binding between SDF-1 and CXCR4, for example a system of measuring the binding between iodine-labeled SDF-1 and a human T cell strain in which CXCR4 is known to be expressed is operable.
To human T cell strain CEM cells in a binding buffer (containing 2-[4-(2-Hydroxyethyl)-1-piperadinyl]ethansulfonic acid; HEPES and BSA), the test compound and ^125I-SDF-1 (PerkinElmer) were added and the mixture was incubated at 4° C. for 60 minutes. The reacted CEM cells were rapidly filtrated with a GF/B membrane filter plate (Packard) to adsorb. The plate was washed with phosphate buffered saline (hereinafter abbreviated to PBS) three times and then dried. Microscint+20 (Packard) was added thereto. An amount of the radioactivity bound to the CEM cells was measured using Top Count (Packard) and inhibition ratio (%) of the test compound was calculated according to the following equation: Inhibition={(Et−Ea)/(Et−Ec)}×100 [Equation 2] Et: Amount of radioactivity when the test compound is not added, Ec: Amount of radioactivity when non-radioactive SDF-1 (Pepro Tech) is added in an amount of 1,000 times as much as ^125I-SDF-1 as a test compound, and Ea: Amount of radioactivity when the test compound is added.

[2] = test system: X4-HIV-1 strains (for example, HIV-1NL4.3 strains); test: HIV infection inhibitory test using PBMC; format: cell-based; settings: human PBMC stimulated with PHA and IL-2, culture 7 days, culture supernatant
Protocol: Human PBMC (peripheral blood mononuclear cells) was isolated from HIV-negative healthy persons and subjected to stimulated culture in the presence of PHA (Phytohemagulutinin) and IL-2. Stimulated PBMC was inoculated in each of 96-well microplates and X^4-HIV-1 strains (for example, HIV-1NL4.3 strains) were exposed in the co-presence of a test compound. After culturing for 7 days, a reverse transcriptase activity of HIV-1 in the culture supernatant was measured and an inhibitory ratio (%) of the test compound was calculated by the following calculation formula, and a concentration (IC90 value) showing a 90% inhibitory ratio was determined. Inhibition={(Et−Ec)/Et}×100 [Equation 1] Et: reverse transcriptase activity value in the absence of a test compound Ec: reverse transcriptase activity value in the presence of a test compound

[3] = test system: CHL/IU (cell line derived from a Chinese hamster lung); test: Phospholipid accumulation measurement (phospholipidosis induction); format: cell-based; settings: NBD-PE, about 48 hours, at 400 μM (maximum treatment concentration); positive = 25% or more of maximum increase rate of amiodarone
Protocol: 100 µL/well as required (1 dose 2 wells) of cell suspension of CHL/IU (cell line derived from a Chinese hamster lung) (7×10^4 cells/mL) prepared by MEM (minimum essential medium) culture medium was added to a 96-well plate (96-well clear-bottom plate), and cultured for about 24 hours. After culture, the supernatant of the 96-well plate was removed, and the 100 μL/well compounds of each concentration dissolved and suspended in a minimum essential medium (MEM) including 25 μM nitrobenzoxazole dipalmitoyl phosphatidylethanolamine (NBD-PE) (hereinafter abbreviated to a NPD-PE medium) were added and treated for about 48 hours. The treatment concentrations of each compound were set to be 5, 50, 100, 200 and 400 μM. The positive control substance was set to be amiodarone hydrochloride, and the treatment concentrations were set to be 1.25, 2.5, 5, 10 and 20 μM. In addition, 5-well untreated controls (only MEM) and 5-well NBD-PE controls (made by means of adding a 1/100 amount of DMSO to the NBD-PE culture medium) were set per compound, and cultured in the same manner. After finishing the culture, the cultures were washed twice with PBS (−) 100 μL/well, and the MEM (100 μL) was added to all of the treatment wells including two empty wells for WST-1 background controls and cultured for about half an hour. The fluorescence intensities of each well were measured by using a microplate reader (manufactured by Molecular Devices Inc., SPECTRA max M2; the excitation wavelength 485 nm/fluorescence wavelength 535 nm). Using the average values of each dose×2 wells, a phospholipid increase rate (%) to the NBD-PE control was calculated by using the following calculating formula: Rate of increase of phospholipid accumulation (%)=100×{(test substance fluorescence intensity−non-treated control fluorescence intensity)/(NBD-PE control fluorescence intensity−non-treated control fluorescence intensity)} 3. Cytotoxicity Test 96-well plate measured in the phospholipid accumulation measurement was measured by means of Plate Reader (manufactured by Molecular Devices Inc., SPECTRA max M2) with the main wavelength of 450 nm and the correct wavelength of 690 nm to calculate a Pre value. An amount of 5 μL/well of Premix WST-1 was added to each of the 96-well plates by which Pre measurement was conducted. After culture for 2 to 4 hours, the 96-well plate was measured as well as the Pre measurement to calculate an Aft value. Then, the background control value was subtracted from the each measured value. A value which was calculated by subtracting the Pre value from the Aft value was used, then the cell growth rate (%) was calculated by using the following calculating formula: Cell growth rate (%)=100×{(test substance OD)/(NBD-PE control OD)} 4. Determination A test dose that indicated value of 25% or more of the maximum phospholipid accumulation increase rate of amiodarone which was the positive control was determined as positive. In addition, the dose whose cell growth rate was equal to or less than 50% in the cytotoxicity test was not used for determination of existence or nonexistence of a phospholipidosis inductive effect.

CC(C)CN1CCC2(CCN(Cc3ccc(CN(Cc4ncc[nH]4)Cc4ncc[nH]4)cc3)C2)CC1C(=O)O (centres unmarked) [g, 2-(4-{[bis(1H-imidazol-2-ylmethyl)amino]methyl}benzyl)-8-isobutyl-2,8-diazaspiro[4.5]decane-7-carboxylic acid]
T90 [1]: 2 h

CCC(CC)N1CCC2(CC1)CCN(Cc1ccc(CN(Cc3ncc[nH]3)Cc3ncc[nH]3)cc1)C2C(=O)O (centres unmarked) [f, 2-(4-{[bis(1H-imidazol-2-ylmethyl)amino]methyl}benzyl)-8-(1-ethylpropyl)-2,8-diazaspiro[4.5]decane-1-carboxylic acid]
T90 [1]: 6 h

O=C(O)Cn1ccnc1CN(Cc1ccc(CN2CCC3(CCN(C4CCCCC4)CC3)C2)cc1)Cc1ncc[nH]1 [l]
T90 [1]: 4 h

CCC(CC)N1CCC2(CCN(Cc3ccc(CN(Cc4ncc[nH]4)Cc4ncc[nH]4)cc3)C2)CC1 [b, 1-(4-{[8-[1-ethylpropyl]-2,8-diazaspiro[4.5]deca-2-yl)methyl}phenyl]-N,N-bis(1H-imidazol-2-ylmethyl)methaneamine]
T90 [1]: 12 h

CCC(CC)N1CCC2(CC1)C[C@@H](C(=O)O)N(Cc1ccc(CN(Cc3ncc[nH]3)Cc3ncc[nH]3)cc1)C2 [Example 32(7), (3S)-2-(4-{[bis(1H-imidazol-2-ylmethyl)amino]methyl}benzyl)-8-(1-ethylpropyl)-2,8-diazaspiro[4.5]decane-3-carboxylic acid]
pIC50 (CXCR4): 8.49 | IC90 value (concentration showing a 90% inhibitory ratio of HIV-1 reverse transcriptase activity) [2]: 0.23 nM | phospholipidosis induction activity (determination) [3]: negative

CCCN(CC)CCCCN(CC(=O)O)Cc1ccc(CN(Cc2ncc[nH]2)Cc2nccn2C)cc1 [i]
T90 [1]: 3 h

COC(=O)c1cc(CN(Cc2ncc[nH]2)Cc2ncc[nH]2)ccc1CN1CCC2(CCN(Cc3sccc3C)CC2)C1 [k]
T90 [1]: 14 h

CCC(CC)N1CCC2(CC1)CN(Cc1ccc(CN(Cc3ncc[nH]3)Cc3ncc[nH]3)cc1)CC2C(=O)O (centres unmarked) [e, 2-(4-{[bis(1H-imidazol-2-ylmethyl)amino]methyl}benzyl)-8-(1-ethylpropyl)-2,8-diazaspiro[4.5]decane-4-carboxylic acid]
T90 [1]: 17 h

CCC(CC)N1CCC2(CC1)C[C@@H](C(=O)O)N(Cc1ccc(CN(Cc3ncc[nH]3)Cc3nccn3C)cc1)C2 [Example 37(7), (3S)-8-(1-ethylpropyl)-2-[4-({(1H-imidazol-2-ylmethyl)[(1-methyl-1H-imidazol-2-yl)methyl]amino}methyl)benzyl]-2,8-diazaspiro[4.5]decane-3-carboxylic acid]
pIC50 (CXCR4): 7.95 | phospholipidosis induction activity (determination) [3]: negative

CCC(CC)N1CCC2(CC1)C[C@@H](C(N)=O)N(Cc1ccc(CN(Cc3ncc[nH]3)Cc3ncc[nH]3)cc1)C2 [c, (3S)-2-(4-{[bis(1H-imidazol-2-ylmethyl)amino]methyl}benzyl)-8-(1-ethylpropyl)-2,8-diazaspiro[4.5]decane-3-carboxyamide]
T90 [1]: 7 h

O=C(O)c1cc(CN(Cc2ncc[nH]2)Cc2ncc[nH]2)ccc1CN1CCC2(CCN(C3CCCCC3)CC2)C1 [d, 5-{[bis(1H-imidazol-2-ylmethyl)amino]methyl}-2-[(8-cyclohexyl-2,8-diazaspiro[4.5]deca-2-yl)methyl]benzenecarboxylic acid]
T90 [1]: 5 h

CCOC(=O)C1CC2(CCN(Cc3ccc(C(=O)N(Cc4ncc[nH]4)Cc4ncc[nH]4)cc3)CC2)CN1C1CCCCC1 (centres unmarked) [j]
T90 [1]: <1 h

CCC(CC)N1CCC2(CC1)C[C@H](C(=O)O)N(Cc1ccc(CN(Cc3ncc[nH]3)Cc3ncc[nH]3)cc1)C2 [Example 32(6), (3R)-2-(4-{[bis(1H-imidazol-2-ylmethyl)amino]methyl}benzyl)-8-(1-ethylpropyl)-2,8-diazaspiro[4.5]decane-3-carboxylic acid]
pIC50 (CXCR4): 8.48 | IC90 value (concentration showing a 90% inhibitory ratio of HIV-1 reverse transcriptase activity) [2]: 0.27 nM | phospholipidosis induction activity (determination) [3]: negative

CCC(CC)N1CCC2(CC1)CC(C(=O)O)N(Cc1ccc(CN(Cc3ncc[nH]3)Cc3ncc[nH]3)cc1)C2 (centres unmarked) [Example 5(5), 2-(4-{[bis(1H-imidazol-2-ylmethyl)amino]methyl}benzyl)-8-(1-ethylpropyl)-2,8-diazaspiro[4.5]decane-3-carboxylic acid]
T90 [1]: 91 h | pIC50 (CXCR4): 8.52 | IC90 value (concentration showing a 90% inhibitory ratio of HIV-1 reverse transcriptase activity) [2]: 0.27 nM | phospholipidosis induction activity (determination) [3]: negative

CCC(CC)N1CCC2(CC1)C[C@H](C(=O)O)N(Cc1ccc(CN(Cc3ncc[nH]3)Cc3nccn3C)cc1)C2 [Example 37(6), (3R)-8-(1-ethylpropyl)-2-[4-({(1H-imidazol-2-ylmethyl)[(1-methyl-1H-imidazol-2-yl)methyl]amino}methyl)benzyl]-2,8-diazaspiro[4.5]decane-3-carboxylic acid]
pIC50 (CXCR4): 7.95 | phospholipidosis induction activity (determination) [3]: negative

CCC(CC)N1CCC2(CCN(CCCn3ccnc3CN(Cc3cccc(CC(=O)O)c3)Cc3ncc[nH]3)C2)CC1 [m]
T90 [1]: 4 h

CCC(CC)N1CC2(CCN(Cc3ccc(CN(Cc4ncc[nH]4)Cc4ncc[nH]4)cc3)CC2)CC1C(=O)O (centres unmarked) [h, 8-(4-{[bis(1H-imidazol-2-ylmethyl)amino]methyl}benzyl)-2-(1-ethylpropyl)-2,8-diazaspiro[4.5]decane-3-carboxylic acid]
T90 [1]: 1.2 h
